PMC6576746, “Rational discovery of dual-indication multi-target PDE/Kinase inhibitor for precision anti-cancer therapy using structural systems pharmacology” (PLoS Computational Biology, 2019)

Key:
Experiment in all cases: biochemical
Parameters in all cases: DiscoverX KinomeScan competition binding assay across human kinases; per cent of control at 10 and 100 uM
AKT2 = AKT2 (Homo sapiens, UniProt P31751); conditions: competition binding, % of control; read-out: Percent Control (100 uM Levosimendan)
Summary of the method: (§1)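 Binding is expressed as %control, normalised between positive and negative control signals. The compound (levosimendan) was tested at 10 μM and 100 μM in the DiscoverX KinomeScan competition binding format against human kinases.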

AXL = AXL (Homo sapiens, UniProt P30530); conditions: competition binding, % of control; read-out: Percent Control (100 uM Levosimendan)
Summary of the method: as §1

BRSK2 = BRSK2 (Homo sapiens, UniProt Q8IWQ3); conditions: competition binding, % of control; read-out: Percent Control (100 uM Levosimendan)
Summary of the method: as §1

CHEK2 = CHEK2 (Homo sapiens, UniProt O96017); conditions: competition binding, % of control
Summary of the method: as §1

CSNK1E = CSNK1E (Homo sapiens, UniProt P49674); conditions: competition binding, % of control; read-out: Percent Control (100 uM Levosimendan)
Summary of the method: as §1

DYRK1A = DYRK1A (Homo sapiens, UniProt Q13627); conditions: competition binding, % of control; read-out: Percent Control (100 uM Levosimendan)
Summary of the method: as §1

EGFR = EGFR (Homo sapiens, UniProt P00533); conditions: competition binding, % of control
Summary of the method: as §1

[1] = molecular target: EGFR(L747-S752del, P753S) (Homo sapiens, UniProt P00533, DEL747-752/P753S); conditions: competition binding, % of control; read-out: Percent Control (100 uM Levosimendan)
Summary of the method: as §1

IGF1R = IGF1R (Homo sapiens, UniProt P08069); conditions: competition binding, % of control; read-out: Percent Control (100 uM Levosimendan)
Summary of the method: as §1

LCK = LCK (Homo sapiens, UniProt P06239); conditions: competition binding, % of control
Summary of the method: as §1

LOK = molecular target: T1, LOK (Homo sapiens, UniProt O94804); conditions: competition binding, % of control; read-out: Percent Control (100 uM Levosimendan)
T1 construct: gene STK10
Summary of the method: as §1

MAP4K3 = MAP4K3 (Homo sapiens, UniProt Q8IVH8); conditions: competition binding, % of control; read-out: Percent Control (100 uM Levosimendan)
Summary of the method: as §1

MAP4K5 = MAP4K5 (Homo sapiens, UniProt Q9Y4K4); conditions: competition binding, % of control; read-out: Percent Control (100 uM Levosimendan)
Summary of the method: as §1

MARK4 = MARK4 (Homo sapiens, UniProt Q96L34); conditions: competition binding, % of control; read-out: Percent Control (100 uM Levosimendan)
Summary of the method: as §1

PCTK2 = molecular target: T2, PCTK2 (Homo sapiens, UniProt Q00537); conditions: competition binding, % of control; read-out: Percent Control (100 uM Levosimendan)
T2 construct: gene CDK17
Summary of the method: as §1

PDGFRA = PDGFRA (Homo sapiens, UniProt P16234); conditions: competition binding, % of control
Summary of the method: as §1

SIK2 = SIK2 (Homo sapiens, UniProt Q9H0K1); conditions: competition binding, % of control; read-out: Percent Control (100 uM Levosimendan)
Summary of the method: as §1

TGFBR1 = TGFBR1 (Homo sapiens, UniProt P36897); conditions: competition binding, % of control
Summary of the method: as §1

YSK4 = molecular target: T3, YSK4 (Homo sapiens, UniProt Q56UN5); conditions: competition binding, % of control
T3 construct: gene MAP3K19
Summary of the method: as §1

[2] = read-out: Percent Control (10 uM Levosimendan)
[3] = read-out: Percent Control (100 uM Levosimendan)

EGFR, sequence (P00533 whole entry): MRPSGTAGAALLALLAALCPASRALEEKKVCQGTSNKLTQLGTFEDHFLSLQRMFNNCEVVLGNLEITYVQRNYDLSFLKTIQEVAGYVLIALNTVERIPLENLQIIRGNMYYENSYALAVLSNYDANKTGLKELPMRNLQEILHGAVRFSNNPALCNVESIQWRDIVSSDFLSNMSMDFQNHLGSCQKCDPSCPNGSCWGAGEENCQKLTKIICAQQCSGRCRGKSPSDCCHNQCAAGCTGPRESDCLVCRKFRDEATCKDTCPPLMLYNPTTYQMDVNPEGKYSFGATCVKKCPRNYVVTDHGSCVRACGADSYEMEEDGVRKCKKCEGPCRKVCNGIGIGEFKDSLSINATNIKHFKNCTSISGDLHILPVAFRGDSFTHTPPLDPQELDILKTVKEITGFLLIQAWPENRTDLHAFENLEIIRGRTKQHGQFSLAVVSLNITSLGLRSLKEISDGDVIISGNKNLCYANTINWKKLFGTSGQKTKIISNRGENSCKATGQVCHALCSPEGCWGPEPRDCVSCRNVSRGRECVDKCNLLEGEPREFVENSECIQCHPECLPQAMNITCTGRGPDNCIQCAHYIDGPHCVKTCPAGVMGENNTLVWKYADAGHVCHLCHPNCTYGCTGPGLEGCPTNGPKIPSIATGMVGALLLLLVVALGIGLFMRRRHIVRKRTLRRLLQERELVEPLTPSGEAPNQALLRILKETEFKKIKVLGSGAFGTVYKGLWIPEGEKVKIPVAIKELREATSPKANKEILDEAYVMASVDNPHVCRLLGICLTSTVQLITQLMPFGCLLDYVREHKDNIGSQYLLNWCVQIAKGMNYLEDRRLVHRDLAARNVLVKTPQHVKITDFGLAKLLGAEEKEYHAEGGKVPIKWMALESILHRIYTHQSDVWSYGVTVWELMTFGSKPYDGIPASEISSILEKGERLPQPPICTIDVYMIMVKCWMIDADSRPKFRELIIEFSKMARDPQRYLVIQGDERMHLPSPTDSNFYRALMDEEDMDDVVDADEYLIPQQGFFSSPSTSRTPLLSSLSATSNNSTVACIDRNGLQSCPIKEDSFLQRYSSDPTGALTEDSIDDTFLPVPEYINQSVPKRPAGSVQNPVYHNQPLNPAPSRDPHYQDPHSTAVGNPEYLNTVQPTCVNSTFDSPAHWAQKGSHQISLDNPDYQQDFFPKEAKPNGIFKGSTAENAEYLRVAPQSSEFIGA
TGFBR1, sequence (P36897 whole entry): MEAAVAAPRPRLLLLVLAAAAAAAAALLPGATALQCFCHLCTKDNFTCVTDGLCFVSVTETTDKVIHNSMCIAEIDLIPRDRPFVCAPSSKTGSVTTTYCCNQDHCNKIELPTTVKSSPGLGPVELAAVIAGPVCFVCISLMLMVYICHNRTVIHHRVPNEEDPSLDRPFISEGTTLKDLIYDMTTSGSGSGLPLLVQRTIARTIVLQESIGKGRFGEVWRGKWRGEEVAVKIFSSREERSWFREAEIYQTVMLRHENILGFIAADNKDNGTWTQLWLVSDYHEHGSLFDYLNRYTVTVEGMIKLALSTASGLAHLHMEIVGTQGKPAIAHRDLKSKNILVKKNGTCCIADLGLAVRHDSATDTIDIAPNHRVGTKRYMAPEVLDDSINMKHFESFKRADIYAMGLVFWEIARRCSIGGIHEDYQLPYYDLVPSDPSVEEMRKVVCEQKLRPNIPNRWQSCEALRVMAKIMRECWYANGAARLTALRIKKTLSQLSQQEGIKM
CHEK2, sequence (O96017 whole entry): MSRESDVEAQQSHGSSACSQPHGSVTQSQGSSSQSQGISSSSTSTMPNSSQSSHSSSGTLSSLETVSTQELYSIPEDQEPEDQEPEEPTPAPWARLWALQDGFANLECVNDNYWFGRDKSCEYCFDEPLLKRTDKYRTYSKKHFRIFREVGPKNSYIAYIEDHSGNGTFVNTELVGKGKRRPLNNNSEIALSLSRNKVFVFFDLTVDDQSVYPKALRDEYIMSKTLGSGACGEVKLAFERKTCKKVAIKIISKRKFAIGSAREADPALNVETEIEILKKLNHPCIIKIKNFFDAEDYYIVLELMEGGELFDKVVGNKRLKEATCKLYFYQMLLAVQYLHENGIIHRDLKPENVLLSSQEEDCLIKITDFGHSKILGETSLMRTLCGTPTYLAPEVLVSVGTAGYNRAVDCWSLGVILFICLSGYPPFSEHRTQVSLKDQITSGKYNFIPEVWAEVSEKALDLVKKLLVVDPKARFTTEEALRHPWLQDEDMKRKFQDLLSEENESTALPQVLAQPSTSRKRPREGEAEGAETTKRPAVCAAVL
T3 sequence (Q56UN5 whole entry): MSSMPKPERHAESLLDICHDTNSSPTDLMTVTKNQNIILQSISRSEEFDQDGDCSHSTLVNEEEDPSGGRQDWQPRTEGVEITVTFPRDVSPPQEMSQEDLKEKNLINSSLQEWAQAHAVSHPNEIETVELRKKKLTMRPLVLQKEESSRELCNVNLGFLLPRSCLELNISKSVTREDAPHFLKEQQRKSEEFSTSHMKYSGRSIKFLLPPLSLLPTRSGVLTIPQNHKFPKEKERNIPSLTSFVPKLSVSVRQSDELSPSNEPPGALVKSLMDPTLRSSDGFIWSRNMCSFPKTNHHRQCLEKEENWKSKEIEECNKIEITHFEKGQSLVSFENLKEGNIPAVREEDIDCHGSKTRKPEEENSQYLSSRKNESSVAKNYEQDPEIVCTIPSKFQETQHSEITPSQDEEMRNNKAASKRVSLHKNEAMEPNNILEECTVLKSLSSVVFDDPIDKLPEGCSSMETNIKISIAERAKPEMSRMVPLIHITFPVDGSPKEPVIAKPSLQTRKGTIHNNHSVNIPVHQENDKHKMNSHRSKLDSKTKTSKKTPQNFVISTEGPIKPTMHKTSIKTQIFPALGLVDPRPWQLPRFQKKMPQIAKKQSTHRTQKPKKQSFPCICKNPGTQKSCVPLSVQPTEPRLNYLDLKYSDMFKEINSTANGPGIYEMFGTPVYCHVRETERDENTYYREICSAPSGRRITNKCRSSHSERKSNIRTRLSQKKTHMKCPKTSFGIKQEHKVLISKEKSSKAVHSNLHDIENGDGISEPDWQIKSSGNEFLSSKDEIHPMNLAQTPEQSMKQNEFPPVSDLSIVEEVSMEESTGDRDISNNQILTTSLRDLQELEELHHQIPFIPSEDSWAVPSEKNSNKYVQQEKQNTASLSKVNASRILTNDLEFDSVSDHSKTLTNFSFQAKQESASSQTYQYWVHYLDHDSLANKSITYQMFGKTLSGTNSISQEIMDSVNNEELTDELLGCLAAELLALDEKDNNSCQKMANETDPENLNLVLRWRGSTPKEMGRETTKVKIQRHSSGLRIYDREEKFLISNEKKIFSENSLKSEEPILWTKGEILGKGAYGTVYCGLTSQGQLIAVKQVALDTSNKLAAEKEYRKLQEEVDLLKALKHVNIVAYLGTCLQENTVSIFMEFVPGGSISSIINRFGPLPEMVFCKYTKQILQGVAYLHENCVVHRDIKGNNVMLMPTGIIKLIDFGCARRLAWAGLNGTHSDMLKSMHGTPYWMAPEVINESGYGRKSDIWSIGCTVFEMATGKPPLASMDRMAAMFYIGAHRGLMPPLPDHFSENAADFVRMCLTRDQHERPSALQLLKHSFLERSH
PDGFRA, sequence (P16234 whole entry): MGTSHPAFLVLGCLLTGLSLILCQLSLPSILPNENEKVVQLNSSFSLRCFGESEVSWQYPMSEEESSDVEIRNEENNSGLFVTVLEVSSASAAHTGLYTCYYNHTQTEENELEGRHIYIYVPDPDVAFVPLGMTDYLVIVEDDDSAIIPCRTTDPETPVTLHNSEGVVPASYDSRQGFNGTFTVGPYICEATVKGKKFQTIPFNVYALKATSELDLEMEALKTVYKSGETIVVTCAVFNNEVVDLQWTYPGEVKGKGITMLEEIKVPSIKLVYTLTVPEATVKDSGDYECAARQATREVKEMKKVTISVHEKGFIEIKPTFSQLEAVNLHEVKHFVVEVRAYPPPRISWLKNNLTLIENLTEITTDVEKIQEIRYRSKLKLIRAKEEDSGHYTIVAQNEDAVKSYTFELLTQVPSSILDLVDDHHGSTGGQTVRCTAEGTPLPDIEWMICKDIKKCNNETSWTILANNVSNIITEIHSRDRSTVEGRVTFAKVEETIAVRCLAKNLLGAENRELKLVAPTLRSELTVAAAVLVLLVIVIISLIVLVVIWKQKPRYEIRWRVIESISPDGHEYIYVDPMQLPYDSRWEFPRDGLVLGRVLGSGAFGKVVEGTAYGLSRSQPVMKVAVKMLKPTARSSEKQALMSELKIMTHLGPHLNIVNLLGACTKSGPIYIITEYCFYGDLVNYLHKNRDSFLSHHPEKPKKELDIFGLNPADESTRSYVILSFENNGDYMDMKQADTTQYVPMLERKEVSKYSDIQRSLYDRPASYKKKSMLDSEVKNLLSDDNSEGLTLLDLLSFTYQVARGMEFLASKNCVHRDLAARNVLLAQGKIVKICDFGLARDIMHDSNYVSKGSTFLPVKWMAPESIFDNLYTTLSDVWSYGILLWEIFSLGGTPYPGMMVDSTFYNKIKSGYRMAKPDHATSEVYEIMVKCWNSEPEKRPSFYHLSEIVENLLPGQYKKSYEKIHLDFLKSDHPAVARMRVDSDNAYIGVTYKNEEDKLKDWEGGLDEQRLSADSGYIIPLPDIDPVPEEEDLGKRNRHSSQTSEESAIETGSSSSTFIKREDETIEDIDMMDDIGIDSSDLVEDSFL
CSNK1E, sequence (P49674 whole entry): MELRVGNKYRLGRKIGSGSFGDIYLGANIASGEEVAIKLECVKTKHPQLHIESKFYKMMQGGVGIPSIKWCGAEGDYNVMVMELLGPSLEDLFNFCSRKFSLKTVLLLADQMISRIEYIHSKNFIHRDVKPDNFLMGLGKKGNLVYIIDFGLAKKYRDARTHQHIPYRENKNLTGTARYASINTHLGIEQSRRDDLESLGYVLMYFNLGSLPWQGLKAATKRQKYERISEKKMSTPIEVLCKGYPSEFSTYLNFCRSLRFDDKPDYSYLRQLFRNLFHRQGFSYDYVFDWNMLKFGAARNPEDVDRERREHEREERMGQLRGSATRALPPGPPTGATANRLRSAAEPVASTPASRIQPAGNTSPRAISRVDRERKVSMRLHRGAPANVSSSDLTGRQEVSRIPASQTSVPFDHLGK

**Q.** Which remaining binding at 100 µM (AKT2) does the source give for `C[C@@H]1CC(=O)NN=C1c1ccc(NN=C(C#N)C#N)cc1` [levosimendan] here?
**A.** The remaining binding at 100 µM was 64%.

**Q.** And the remaining binding at 100 µM (AXL)?
**A.** The remaining binding at 100 µM was 83%.

**Q.** What about the remaining binding at 100 µM (BRSK2) of the same molecule?
**A.** The remaining binding at 100 µM was 100%.

**Q.** And the remaining binding at 10 µM (CHEK2; [2])?
**A.** The remaining binding at 10 µM was 41%.

**Q.** What about the remaining binding at 100 µM (CHEK2; [3]) of the same molecule?
**A.** Its remaining binding at 100 µM is 0.65%.

**Q.** What about the remaining binding at 100 µM (CSNK1E) of the same molecule?
**A.** Its remaining binding at 100 µM is 63%.

**Q.** What about the remaining binding at 100 µM (DYRK1A) of the same molecule?
**A.** Its remaining binding at 100 µM is 89%.

**Q.** What about the remaining binding at 10 µM (EGFR; [2]) of the same molecule?
**A.** The remaining binding at 10 µM was 78%.

**Q.** And the remaining binding at 100 µM (EGFR; [3])?
**A.** Its remaining binding at 100 µM is 28%.

**Q.** What about the remaining binding at 100 µM [1] of the same molecule?
**A.** Its remaining binding at 100 µM is 91%.

**Q.** What about the remaining binding at 100 µM (IGF1R) of the same molecule?
**A.** Its remaining binding at 100 µM is 86%.

**Q.** What about the remaining binding at 10 µM (LCK; [2]) of the same molecule?
**A.** Its remaining binding at 10 µM is 89%.

**Q.** And the remaining binding at 100 µM (LCK; [3])?
**A.** Its remaining binding at 100 µM is 46%.

**Q.** And the remaining binding at 100 µM (LOK)?
**A.** The remaining binding at 100 µM was 70%.

**Q.** And the remaining binding at 100 µM (MAP4K3)?
**A.** Its remaining binding at 100 µM is 95%.

**Q.** What about the remaining binding at 100 µM (MAP4K5) of the same molecule?
**A.** Its remaining binding at 100 µM is 100%.

**Q.** What about the remaining binding at 100 µM (MARK4) of the same molecule?
**A.** The remaining binding at 100 µM was 87%.

**Q.** And the remaining binding at 100 µM (PCTK2)?
**A.** The remaining binding at 100 µM was 100%.

**Q.** And the remaining binding at 10 µM (PDGFRA; [2])?
**A.** The remaining binding at 10 µM was 73%.

**Q.** And the remaining binding at 100 µM (PDGFRA; [3])?
**A.** The remaining binding at 100 µM was 37%.

**Q.** And the remaining binding at 100 µM (SIK2)?
**A.** Its remaining binding at 100 µM is 65%.

**Q.** What about the remaining binding at 10 µM (TGFBR1; [2]) of the same molecule?
**A.** Its remaining binding at 10 µM is 89%.

**Q.** And the remaining binding at 100 µM (TGFBR1; [3])?
**A.** Its remaining binding at 100 µM is 48%.

**Q.** What about the remaining binding at 10 µM (YSK4; [2]) of the same molecule?
**A.** The remaining binding at 10 µM was 48%.

**Q.** What about the remaining binding at 100 µM (YSK4; [3]) of the same molecule?
**A.** Its remaining binding at 100 µM is 10%.
